# Experimental data as given in patent US11813340B2, “PSMA targeted radiohalogenated urea-polyaminocarboxylates for cancer radiotherapy” (The Johns Hopkins University, priority 2018, dated 2023).
# Read-outs that look alike come from different tables or passages of the source.
# Experiments:
# [1] = system: preclinical models of human prostate cancer (PC); conditions: Kiess et al., 2016, cited from earlier work
# [2] = system: PSMA + PC3-PIP and PSMA-PC3-flu flank xenografts; conditions: no blocker, inhibitors reported in WO2017070482, cited from earlier work
# [3] = system: PSMA + PC3-PIP and PSMA-PC3-flu flank xenografts; conditions: without cold blocking agent
# Procedure: Final compounds were purified by HPLC. […] Organs were harvested 1, 4, and 24 h post-injection (n=5 per time point).
# [4] = system: PSMA+PC3-PIP and PSMA-PC3-flu flank xenografts; test: Biodistribution of [125I/211At]2 and 3 with and without co-injection of DCIBzL (Example 6); format: in vivo, athymic mice; conditions: no co-injection
# Excerpt: Final compounds were purified by HPLC.
# [5] = system: PiP (tumor) and Flu (tumor); test: Biodistribution of [125I]VK-03-03 and [125I]VK-03-03-Lu in mice (Table 9); format: in vivo
# [6] = system: PSMA + PC3-PIP and PSMA-PC3-flu flank xenografts; test: Biodistribution of At-211 labeled PSMA inhibitors with and without cold blocking agent (Tables 6-8); format: in vivo, athymic mice; conditions: mice
smiles,measurement,setting,value
"O=C(O)CC[C@H](NC(=O)NC(CCCCNC(=O)c1ccc([211At])cc1)C(=O)O)C(=O)O (stereo partly drawn) [YC-I-27, (2S)-2-(3-(1-Carboxy-5-(4-211At-Astatobenzamido)Pentyl)Ureido)-Pentanedioic Acid]",efficacy as PSMA-targeted radiopharmaceutical therapy (RPT) agent,[1],high efficacy
same,renal toxicity,[1]; due to high uptake and long retention in kidney,caused renal failure
same,"Biodistribution, Blood",[2]; 1 Hour,1.7 ± 0.3 % injected dose/g
same,"Biodistribution, Flu tumor",[2]; 1 Hour,2.2 ± 0.4 % injected dose/g
same,"Biodistribution, PIP tumor",[2]; 1 Hour,17.9 ± 3.0 % injected dose/g
same,"Biodistribution, Spleen",[2]; 1 Hour,29 ± 10 % injected dose/g
same,"Biodistribution, Stomach",[2]; 1 Hour,10.1 ± 1.7 % injected dose/g
same,"Biodistribution, kidney",[2]; 1 Hour,71 ± 12 % injected dose/g
same,"Biodistribution, thyroid",[2]; 1 Hour,3.7 ± 1.1 % injected dose/g
same,"Biodistribution, Blood",[2]; 4 H,1.0 ± 0.1 % injected dose/g
same,"Biodistribution, Flu tumor",[2]; 4 H,1.5 ± 0.2 % injected dose/g
same,"Biodistribution, Spleen",[2]; 4 H,20.3 ± 3.6 % injected dose/g
same,"Biodistribution, kidney",[2]; 4 H,60 ± 12 % injected dose/g
same,"Biodistribution, thyroid",[2]; 4 H,3.8 ± 1.2 % injected dose/g
same,"Biodistribution, Blood",[2]; 21-24 Hour (footnote a),0.5 ± 0.05 % injected dose/g
same,"Biodistribution, Flu tumor",[2]; 21-24 Hour (footnote a),1.2 ± 0.2 % injected dose/g
same,"Biodistribution, PIP tumor",[2]; 21-24 Hour (footnote a),31.1 ± 9.8 % injected dose/g
same,"Biodistribution, Spleen",[2]; 21-24 Hour (footnote a),8.0 ± 2.0 % injected dose/g
same,"Biodistribution, Stomach",[2]; 21-24 Hour (footnote a),9.4 ± 3.0 % injected dose/g
same,"Biodistribution, kidney",[2]; 21-24 Hour (footnote a),57.4 ± 7.4 % injected dose/g
same,"Biodistribution, thyroid",[2]; 21-24 Hour (footnote a),6.5 ± 2.0 % injected dose/g
O=C(O)CC[C@H](NC(=O)N[C@@H](CCCCN(Cc1ccc([125I])cc1)C(=O)CCCCNC(=O)CN1CCN(CC(=O)O)CCN(CC(=O)O)CCN(CC(=O)O)CC1)C(=O)O)C(=O)O [[^125I]VK-02-90],"Biodistribution, Blood",[3]; 1 H,1.1 ± 0.3 % injected dose/g
same,"Biodistribution, Flu tumor",[3]; 1 H,1.4 ± 0.6 % injected dose/g
same,"Biodistribution, Kidneys",[3]; 1 H,194 ± 25 % injected dose/g
same,"Biodistribution, Lacrimal glands",[3]; 1 H,17.4 ± 6.0 % injected dose/g
same,"Biodistribution, Pip (tumor)",[3]; 1 H,58 ± 14 % injected dose/g
same,"Biodistribution, Salivary glands",[3]; 1 H,5.1 ± 3.4 % injected dose/g
same,"Biodistribution, Spleen",[3]; 1 H,40.2 ± 16.4 % injected dose/g
same,"Biodistribution, Stomach",[3]; 1 H,1.1 ± 0.3 % injected dose/g
same,"Biodistribution, Blood",[3]; 4 H,0.2 ± 0.03 % injected dose/g
same,"Biodistribution, Flu tumor",[3]; 4 H,0.3 ± 0.06 % injected dose/g
same,"Biodistribution, Kidneys",[3]; 4 H,162 ± 36 % injected dose/g
same,"Biodistribution, Lacrimal glands",[3]; 4 H,1.9 ± 0.45 % injected dose/g
same,"Biodistribution, Pip (tumor)",[3]; 4 H,38 ± 13 % injected dose/g
same,"Biodistribution, Salivary glands",[3]; 4 H,0.7 ± 0.2 % injected dose/g
same,"Biodistribution, Spleen",[3]; 4 H,4.7 ± 1.2 % injected dose/g
same,"Biodistribution, Stomach",[3]; 4 H,0.4 ± 0.2 % injected dose/g
same,"Biodistribution, Blood",[3]; 24 H,0.02 ± 0.01 % injected dose/g
same,"Biodistribution, Flu tumor",[3]; 24 H,0.04 ± 0.02 % injected dose/g
same,"Biodistribution, Kidneys",[3]; 24 H,30.6 ± 14.0 % injected dose/g
same,"Biodistribution, Lacrimal glands",[3]; 24 H,0.5 ± 0.2 % injected dose/g
same,"Biodistribution, Pip (tumor)",[3]; 24 H,51 ± 7 % injected dose/g
same,"Biodistribution, Salivary glands",[3]; 24 H,0.3 ± 0.3 % injected dose/g
same,"Biodistribution, Spleen",[3]; 24 H,0.7 ± 0.4 % injected dose/g
same,"Biodistribution, Stomach",[3]; 24 H,0.05 ± 0.03 % injected dose/g
same,"retention of radioactivity, lacrimal glands (LG)",[4]; 1h,17.4±6.0 % ID/g
same,"retention of radioactivity, salivary glands (SG)",[4]; 1h,5.1±3.4 % ID/g
same,"retention of radioactivity, kidneys (K)",[4]; 4 h,162±36 % ID/g
same,"retention of radioactivity, kidneys (K)",[4]; 24 h,30.6±14.0 % ID/g
O=C(O)CC[C@H](NC(=O)N[C@@H](CCCCN(Cc1ccc(Br)cc1)C(=O)CCCCNC(=O)c1cc([125I])cc(C(=O)NCCNC(=O)CN2CCN(CC(=O)O)CCN(CC(=O)O)CCN(CC(=O)O)CC2)c1)C(=O)O)C(=O)O [[^125I]VK-03-03],"Biodistribution Data, Flu (tumor)",[5]; 1 H,2.0 ± 0.7
same,"Biodistribution Data, PiP (tumor)",[5]; 1 H,44.7 ± 12.2
same,"Biodistribution Data, bladder",[5]; 1 H,5.0 ± 2.9
same,"Biodistribution Data, blood",[5]; 1 H,1.6 ± 0.26
same,"Biodistribution Data, fat",[5]; 1 H,3.2 ± 0.7
same,"Biodistribution Data, heart",[5]; 1 H,1.6 ± 0.5
same,"Biodistribution Data, kidney",[5]; 1 H,132 ± 18.5
same,"Biodistribution Data, lacrimal gland",[5]; 1 H,25.4 ± 4.1
same,"Biodistribution Data, large intestine",[5]; 1 H,1.2 ± 0.06
same,"Biodistribution Data, liver",[5]; 1 H,0.9 ± 0.15
same,"Biodistribution Data, lung",[5]; 1 H,4.5 ± 0.6
same,"Biodistribution Data, muscle",[5]; 1 H,1.0 ± 0.2
same,"Biodistribution Data, pancreas",[5]; 1 H,1.8 ± 0.27
same,"Biodistribution Data, salivary gland",[5]; 1 H,5.0 ± 0.86
same,"Biodistribution Data, small intestine",[5]; 1 H,0.76 ± 0.13
same,"Biodistribution Data, spleen",[5]; 1 H,70.0 ± 20.4
same,"Biodistribution Data, stomach",[5]; 1 H,1.0 ± 0.12
same,"Biodistribution Data, Flu (tumor)",[5]; 4 H,1.2 ± 0.28
same,"Biodistribution Data, PiP (tumor)",[5]; 4 H,57.0 ± 15.9
same,"Biodistribution Data, bladder",[5]; 4 H,2.4 ± 0.5
same,"Biodistribution Data, blood",[5]; 4 H,0.49 ± 0.08
same,"Biodistribution Data, fat",[5]; 4 H,4.1 ± 1.5
same,"Biodistribution Data, heart",[5]; 4 H,0.9 ± 0.03
same,"Biodistribution Data, kidney",[5]; 4 H,165 ± 14.4
same,"Biodistribution Data, lacrimal gland",[5]; 4 H,15.8 ± 4.9
same,"Biodistribution Data, large intestine",[5]; 4 H,0.58 ± 0.19
same,"Biodistribution Data, liver",[5]; 4 H,0.4 ± 0.2
same,"Biodistribution Data, lung",[5]; 4 H,2.3 ± 0.3
same,"Biodistribution Data, muscle",[5]; 4 H,0.64 ± 0.22
same,"Biodistribution Data, pancreas",[5]; 4 H,1.5 ± 0.05
same,"Biodistribution Data, salivary gland",[5]; 4 H,3.5 ± 0.4
same,"Biodistribution Data, small intestine",[5]; 4 H,0.37 ± 0.08
same,"Biodistribution Data, spleen",[5]; 4 H,37.4 ± 8.9
same,"Biodistribution Data, stomach",[5]; 4 H,0.95 ± 0.7
same,"Biodistribution Data, Flu (tumor)",[5]; 24 H,0.2 ± 0.09
same,"Biodistribution Data, PiP (tumor)",[5]; 24 H,54.1 ± 6.3
same,"Biodistribution Data, bladder",[5]; 24 H,1.6 ± 0.75
same,"Biodistribution Data, blood",[5]; 24 H,0.09 ± 0.02
same,"Biodistribution Data, fat",[5]; 24 H,0.37 ± 0.28
same,"Biodistribution Data, heart",[5]; 24 H,0.17 ± 0.08
same,"Biodistribution Data, kidney",[5]; 24 H,141 ± 18.3
same,"Biodistribution Data, lacrimal gland",[5]; 24 H,2.6 ± 0.76
same,"Biodistribution Data, large intestine",[5]; 24 H,0.11 ± 0.06
same,"Biodistribution Data, liver",[5]; 24 H,0.09 ± 0.02
same,"Biodistribution Data, lung",[5]; 24 H,0.58 ± 0.2
same,"Biodistribution Data, muscle",[5]; 24 H,0.1 ± 0.05
same,"Biodistribution Data, pancreas",[5]; 24 H,0.26 ± 0.07
same,"Biodistribution Data, salivary gland",[5]; 24 H,0.6 ± 0.16
same,"Biodistribution Data, small intestine",[5]; 24 H,0.08 ± 0.03
same,"Biodistribution Data, spleen",[5]; 24 H,4.9 ± 2.7
same,"Biodistribution Data, stomach",[5]; 24 H,0.18 ± 0.06
same,clearance of radioactivity in the kidneys,"[5]; mouse, in vivo",does not clear over time
same,tumor uptake,"[5]; mouse, in vivo",high and prolonged tumor uptake
O=C(O)CC[C@H](NC(=O)N[C@@H](CCCCN(Cc1ccc([211At])cc1)C(=O)CCCCNC(=O)CN1CCN(CC(=O)O)CCN(CC(=O)O)CCN(CC(=O)O)CC1)C(=O)O)C(=O)O [[^211At]VK-02-90],radioactivity in the stomach,[6],very low
same,stability in-vivo,[6],stable in-vivo
